Values after ≈ are worked out from the molar mass of the structure shown.
Tests used:
Assay in all cases: Agar dilution test, minimum inhibitory concentration
Assay type in all cases: cell-based
Providencia 12052 = details: test strain Providencia 12052; Isosensitest-Agar (Oxoid), inoculum ca. 10^4 germs per inoculation point; read-out: Minimale Hemmkonzentrationen
E.coli A261 = details: Escherichia coli; test strain E.coli A261; Isosensitest-Agar (Oxoid), inoculum ca. 10^4 germs per inoculation point; read-out: Minimale Hemmkonzentrationen
E.coli 455/7 = details: Escherichia coli; test strain E.coli 455/7; Isosensitest-Agar (Oxoid), inoculum ca. 10^4 germs per inoculation point; read-out: Minimale Hemmkonzentrationen
Pseudomonas Walter = details: test strain Pseudomonas Walter; Isosensitest-Agar (Oxoid), inoculum ca. 10^4 germs per inoculation point; read-out: Minimale Hemmkonzentrationen
Serratia 16040 = details: test strain Serratia 16040; Isosensitest-Agar (Oxoid), inoculum ca. 10^4 germs per inoculation point; read-out: Minimale Hemmkonzentrationen
Enteroc. 9790 = details: test strain Enteroc. 9790; Isosensitest-Agar (Oxoid), inoculum ca. 10^4 germs per inoculation point; read-out: Minimale Hemmkonzentrationen
Pseudomonas Ellsworth = details: test strain Pseudomonas Ellsworth; Isosensitest-Agar (Oxoid), inoculum ca. 10^4 germs per inoculation point; read-out: Minimale Hemmkonzentrationen
Proteus mir. 8223 = details: test strain Proteus mir. 8223; Isosensitest-Agar (Oxoid), inoculum ca. 10^4 germs per inoculation point; read-out: Minimale Hemmkonzentrationen
Enteroc. 27101 = details: test strain Enteroc. 27101; Isosensitest-Agar (Oxoid), inoculum ca. 10^4 germs per inoculation point; read-out: Minimale Hemmkonzentrationen
Staph. 1756 = details: test strain Staph. 1756; Isosensitest-Agar (Oxoid), inoculum ca. 10^4 germs per inoculation point; read-out: Minimale Hemmkonzentrationen
Staph. 133 = details: test strain Staph. 133; Isosensitest-Agar (Oxoid), inoculum ca. 10^4 germs per inoculation point; read-out: Minimale Hemmkonzentrationen
Proteus mir. 8175 = details: test strain Proteus mir. 8175; Isosensitest-Agar (Oxoid), inoculum ca. 10^4 germs per inoculation point; read-out: Minimale Hemmkonzentrationen
Staph. FK 422 = details: test strain Staph. FK 422; Isosensitest-Agar (Oxoid), inoculum ca. 10^4 germs per inoculation point; read-out: Minimale Hemmkonzentrationen
Morg. morg. 11006 = details: test strain Morg. morg. 11006; Isosensitest-Agar (Oxoid), inoculum ca. 10^4 germs per inoculation point; read-out: Minimale Hemmkonzentrationen
Proteus vulg. 1017 = details: test strain Proteus vulg. 1017; Isosensitest-Agar (Oxoid), inoculum ca. 10^4 germs per inoculation point; read-out: Minimale Hemmkonzentrationen
Providencia 12012 = details: test strain Providencia 12012; Isosensitest-Agar (Oxoid), inoculum ca. 10^4 germs per inoculation point; read-out: Minimale Hemmkonzentrationen
Klebsiella 63 = details: test strain Klebsiella 63; Isosensitest-Agar (Oxoid), inoculum ca. 10^4 germs per inoculation point; read-out: Minimale Hemmkonzentrationen
Klebsiella 8085 = details: test strain Klebsiella 8085; Isosensitest-Agar (Oxoid), inoculum ca. 10^4 germs per inoculation point; read-out: Minimale Hemmkonzentrationen
Morg. morg. 932 = details: test strain Morg. morg. 932; Isosensitest-Agar (Oxoid), inoculum ca. 10^4 germs per inoculation point; read-out: Minimale Hemmkonzentrationen
E.coli Neumann = details: Escherichia coli; test strain E.coli Neumann; Isosensitest-Agar (Oxoid), inoculum ca. 10^4 germs per inoculation point; read-out: Minimale Hemmkonzentrationen

Row | SMILES | MIC (Providencia 12052) [µg/mL] | MIC (E.coli A261) [µg/mL] | MIC (E.coli 455/7) [µg/mL] | MIC (Pseudomonas Walter) [µg/mL] | MIC (Serratia 16040) [µg/mL] | MIC (Enteroc. 9790) [µg/mL] | MIC (Pseudomonas Ellsworth) [µg/mL] | MIC (Proteus mir. 8223) [µg/mL] | MIC (Enteroc. 27101) [µg/mL] | MIC (Staph. 1756) [µg/mL] | MIC (Staph. 133) [µg/mL] | MIC (Proteus mir. 8175) [µg/mL] | MIC (Staph. FK 422) [µg/mL] | MIC (Morg. morg. 11006) [µg/mL] | MIC (Proteus vulg. 1017) [µg/mL] | MIC (Providencia 12012) [µg/mL] | MIC (Klebsiella 63) [µg/mL] | MIC (Klebsiella 8085) [µg/mL] | MIC (Morg. morg. 932) [µg/mL] | MIC (E.coli Neumann) [µg/mL]
1 | Nc1c(F)c(N2CCC(O)C2)c(F)c2c1c(=O)c(C(=O)O)cn2C1CC1 (stereo not drawn) [Beispiel 28, 5-Amino-1-cyclopropyl-6,8-difluor-1,4-dihydro-7-(3-hydroxy-1-pyrrolidinyl)-4-oxo-3-chinolincarbonsäure] | 1 (≈ 2.74 µM) | 0.25 (≈ 0.684 µM) | 2 (≈ 5.47 µM) | 0.25 (≈ 0.684 µM) | 1 (≈ 2.74 µM) | 0.03 (≈ 0.0821 µM) | 0.03 (≈ 0.0821 µM) | 0.06 (≈ 0.164 µM) | 0.03 (≈ 0.0821 µM) | – | – | – | – | – | – | – | – | – | – | –
2 | CC1CN(c2c(F)c(N)c3c(=O)c(C(=O)O)cn(C4CC4)c3c2F)CCN1 (stereo not drawn) [Beispiel 17, 5-Amino-1-cyclopropyl-6,8-difluor-1,4-dihydro-7-(3-methyl-1-piperazinyl)-4-oxo-3-chinolincarbonsäure] | 2 (≈ 5.29 µM) | – | 0.5 (≈ 1.32 µM) | 0.25 (≈ 0.661 µM) | 2 (≈ 5.29 µM) | – | – | 0.25 (≈ 0.661 µM) | – | 0.03 (≈ 0.0793 µM) | 0.03 (≈ 0.0793 µM) | 0.06 (≈ 0.159 µM) | 0.03 (≈ 0.0793 µM) | – | – | – | – | – | – | –
3 | Nc1c(F)c(N2CCNC(c3ccc(F)cc3)C2)c(F)c2c1c(=O)c(C(=O)O)cn2C1CC1 (stereo not drawn) [Beispiel 24, 5-Amino-1-cyclopropyl-6,8-difluor-7-[3-(4-fluorphenyl)-1-piperazinyl]-1,4-dihydro-4-oxo-3-chinolincarbonsäure] | 4 (≈ 8.73 µM) | 1 (≈ 2.18 µM) | 4 (≈ 8.73 µM) | 2 (≈ 4.36 µM) | 8 (≈ 17.5 µM) | 0.25 (≈ 0.545 µM) | 0.25 (≈ 0.545 µM) | 2 (≈ 4.36 µM) | 0.25 (≈ 0.545 µM) | 0.06 (≈ 0.131 µM) | 0.06 (≈ 0.131 µM) | 0.25 (≈ 0.545 µM) | – | 0.25 (≈ 0.545 µM) | 0.06 (≈ 0.131 µM) | – | – | – | – | –
4 | Nc1c(F)c(N2CCOCC2)c(F)c2c1c(=O)c(C(=O)O)cn2C1CC1 [Beispiel 26, 5-Amino-1-cyclopropyl-6,8-difluor-1,4-dihydro-7-morpholino-4-oxo-3-chinolincarbonsäure] | 8 (≈ 21.9 µM) | 4 (≈ 10.9 µM) | 16 (≈ 43.8 µM) | 2 (≈ 5.47 µM) | 8 (≈ 21.9 µM) | 0.25 (≈ 0.684 µM) | 0.03 (≈ 0.0821 µM) | 0.5 (≈ 1.37 µM) | 0.25 (≈ 0.684 µM) | 0.03 (≈ 0.0821 µM) | 0.03 (≈ 0.0821 µM) | – | 0.03 (≈ 0.0821 µM) | – | 0.03 (≈ 0.0821 µM) | 0.06 (≈ 0.164 µM) | 0.06 (≈ 0.164 µM) | 0.06 (≈ 0.164 µM) | 0.03 (≈ 0.0821 µM) | 0.03 (≈ 0.0821 µM)
5 | Nc1c(F)c(-n2ccnc2)c(F)c2c1c(=O)c(C(=O)O)cn2C1CC1 [Beispiel 30, 5-Amino-1-cyclopropyl-6,8-difluor-1,4-dihydro-7-(1-imidazolyl)-4-oxo-3-chinolincarbonsäure-methansulfonat] | 4 (≈ 11.6 µM) | 2 (≈ 5.78 µM) | 16 (≈ 46.2 µM) | 2 (≈ 5.78 µM) | 8 (≈ 23.1 µM) | 0.25 (≈ 0.722 µM) | 0.25 (≈ 0.722 µM) | 2 (≈ 5.78 µM) | 0.25 (≈ 0.722 µM) | – | 0.03 (≈ 0.0866 µM) | 0.06 (≈ 0.173 µM) | – | 0.06 (≈ 0.173 µM) | – | – | 0.06 (≈ 0.173 µM) | 0.03 (≈ 0.0866 µM) | – | 0.03 (≈ 0.0866 µM)
6 | Nc1c(F)c(N2CCNC(c3ccccc3)C2)c(F)c2c1c(=O)c(C(=O)O)cn2C1CC1 (stereo not drawn) [Beispiel 23, 5-Amino-1-cyclopropyl-6,8-difluor-1,4-dihydro-4-oxo-7-(3-phenyl-1-piperazinyl)-3-chinolincarbonsäure] | 1 (≈ 2.27 µM) | 0.25 (≈ 0.568 µM) | 1 (≈ 2.27 µM) | 1 (≈ 2.27 µM) | 2 (≈ 4.54 µM) | 0.06 (≈ 0.136 µM) | – | – | 0.03 (≈ 0.0681 µM) | – | – | 0.06 (≈ 0.136 µM) | – | 0.03 (≈ 0.0681 µM) | – | – | – | 0.03 (≈ 0.0681 µM) | – | –

From patent publication EP0284935A1, “5-Substituted quinolone- and naphthyridone carboxylic acid derivatives” (BAYER AG, priority 1987, dated 1988)
